Test results taken from patent publication US12077503B2, “Substituted cyclic amides and their use as herbicides” (FMC CORPORATION, priority 2015, dated 2024).

Legend:
Assay type in all cases: in vivo
rice (Oryra sativa) = assay: Test B flooded paddy test; conditions: Oryza sativa, 250 g ai/ha, Flood; 0 to 100 scale where 0 is no effect and 100 is complete control; read-out: Rice plant response rating
Summary of the method: (§1)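 Evaluation by eye, against controls, occurred 13–15 d post-treatment in a greenhouse, using a 0 (no effect) to 100 (complete control) scale. Application was into the paddy water, 3 cm deep over the soil, on 2-leaf plants.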

[1] = test system: ducksalad (Heteranthera limosa); assay: Test B flooded paddy test; conditions: Heteranthera limosa, 250 g ai/ha, Flood; 0 to 100 scale where 0 is no effect and 100 is complete control; read-out: Ducksalad plant response rating
Summary of the method: as §1

[2] = test system: sedge, umbrella (small-flower umbrella sedge, Cyperus difformis); assay: Test B flooded paddy test; conditions: Cyperus difformis, 250 g ai/ha, Flood; 0 to 100 scale where 0 is no effect and 100 is complete control; read-out: Sedge, Umbrella plant response rating
Summary of the method: as §1

[3] = test system: barnyardgrass (Echinochloa crus-galli); assay: Test B flooded paddy test; conditions: Echinochloa crus-galli, 250 g ai/ha, Flood; 0 to 100 scale where 0 is no effect and 100 is complete control; read-out: Barnyardgrass plant response rating
Summary of the method: as §1

[4] = test system: ragweed (common ragweed, Ambrosia elatior); assay: Test A preemergence; conditions: Ambrosia artemisiifolia, pre-emergence, 240 h, 0 to 100 scale where 0 is no effect and 100 is complete control, read-out: Ragweed plant response rating
Summary of the method: (§2)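 Seeds sprayed preemergence with a directed soil spray, or plants at 2 to 10 cm height and one- to two-leaf stage sprayed postemergence, with test chemicals in a non-phytotoxic solvent mixture containing surfactant, in loam soil–sand blend. Injury rated visually against untreated controls after about 10 d in greenhouse, 0 (no effect) to 100 (complete control).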

Kochia (Kochia scoparia) [5] = assay: Test A preemergence; conditions: Bassia scoparia, pre-emergence, 240 h, 0 to 100 scale where 0 is no effect and 100 is complete control, read-out: Kochia plant response rating
Summary of the method: as §2

[6] = test system: giant foxtail (Setaria faberii); assay: Test A preemergence; conditions: Setaria faberi, pre-emergence, 240 h, 0 to 100 scale where 0 is no effect and 100 is complete control, read-out: Foxtail, Giant plant response rating
Summary of the method: as §2

[7] = test system: barnyardgrass (Echinochloa crus-galli); assay: Test A preemergence; conditions: Echinochloa crus-galli, pre-emergence, 240 h, 0 to 100 scale where 0 is no effect and 100 is complete control, read-out: Barnyardgrass plant response rating
Summary of the method: as §2

[8] = test system: pigweed (Amaranthus retroflexus); assay: Test A preemergence; conditions: Amaranthus retroflexus, pre-emergence, 240 h, 0 to 100 scale where 0 is no effect and 100 is complete control, read-out: Pigweed plant response rating
[9] = test system: ryegrass, Italian (Italian ryegrass, Lolium multiflorum); assay: Test A preemergence; conditions: Lolium multiflorum, pre-emergence, 240 h, 0 to 100 scale where 0 is no effect and 100 is complete control, read-out: Ryegrass, Italian plant response rating
Summary of the method: as §2

[10] = test system: blackgrass (Alopecurus myosuroides); assay: Test A postemergence; conditions: Alopecurus myosuroides, post-emergence, 240 h, Postemergence, read-out: Blackgrass plant response rating (0 to 100 scale)
Summary of the method: as §2

[11] = test system: Galium (catchweed bedstraw, Galium aparine); assay: Test A postemergence; conditions: Galium, post-emergence, 240 h, Postemergence, read-out: Galium plant response rating (0 to 100 scale)
Summary of the method: as §2

[12] = test system: ragweed (common ragweed, Ambrosia elatior); assay: Test A postemergence; conditions: Ambrosia artemisiifolia, post-emergence, 240 h, Postemergence, read-out: Ragweed plant response rating (0 to 100 scale)
Summary of the method: as §2

Kochia (Kochia scoparia) [13] = assay: Test A postemergence; conditions: Bassia scoparia, post-emergence, 240 h, Postemergence, read-out: Kochia plant response rating (0 to 100 scale)
Summary of the method: as §2

[14] = test system: wheat (Triticum aestivum); assay: Test A postemergence; conditions: Triticum aestivum, post-emergence, 240 h, Postemergence, read-out: Wheat plant response rating (0 to 100 scale)
Summary of the method: as §2

[15] = test system: giant foxtail (Setaria faberii); assay: Test A postemergence; conditions: Setaria faberi, post-emergence, 240 h, Postemergence, read-out: Foxtail, Giant plant response rating (0 to 100 scale)
Summary of the method: as §2

[16] = test system: barnyardgrass (Echinochloa crus-galli); assay: Test A postemergence; conditions: Echinochloa crus-galli, post-emergence, 240 h, Postemergence
Summary of the method: as §2

[17] = test system: pigweed (Amaranthus retroflexus); assay: Test A postemergence; conditions: Amaranthus retroflexus, post-emergence, 240 h, Postemergence, read-out: Pigweed plant response rating (0 to 100 scale)
Summary of the method: as §2

[18] = test system: ryegrass, Italian (Italian ryegrass, Lolium multiflorum); assay: Test A postemergence; conditions: Lolium multiflorum, post-emergence, 240 h, Postemergence, read-out: Ryegrass, Italian plant response rating (0 to 100 scale)
Summary of the method: as §2

corn (Zea mays) = assay: Test A postemergence; conditions: Zea mays, post-emergence, 240 h, Postemergence, read-out: Corn plant response rating (0 to 100 scale)
Summary of the method: as §2

[19] = 125 g ai/ha, preemergence, visual injury rating, approximately 10 d
[20] = 125 g ai/ha, visual rating about 10 d after treatment
[21] = 31 g ai/ha, 0 is no effect, 100 is complete control

## O=C(Nc1cccc(F)c1F)C1C(=O)N(CC(F)F)CC1c1cccc(C(F)(F)F)c1 (stereo not drawn) [Compound 1294]
Rice (Oryra sativa)
  pest or weed control at 250 g/ha: 0%
[1]
  pest or weed control at 250 g/ha: 0%
[2]
  pest or weed control at 250 g/ha: 0%
[3]
  pest or weed control at 250 g/ha: 0%
[4]; 31 g ai/ha, Preemergence
  pest or weed control at 31 g/ha: 0%
[4]; [19]
  pest or weed control at 125 g/ha: 0%
Kochia (Kochia scoparia) [5]; 31 g ai/ha, Preemergence
  pest or weed control at 31 g/ha: 0%
Kochia (Kochia scoparia) [5]; [19]
  pest or weed control at 125 g/ha: 0%
[6]; 31 g ai/ha, Preemergence
  pest or weed control at 31 g/ha: 0%
[6]; [19]
  pest or weed control at 125 g/ha: 30%
[7]; 31 g ai/ha, Preemergence
  pest or weed control at 31 g/ha: 0%
[7]; [19]
  pest or weed control at 125 g/ha: 50%
[8]; 31 g ai/ha, Preemergence
  pest or weed control at 31 g/ha: 0%
[8]; [19]
  pest or weed control at 125 g/ha: 0%
[9]; 31 g ai/ha, Preemergence
  pest or weed control at 31 g/ha: 0%
[9]; [19]
  pest or weed control at 125 g/ha: 0%
[10]; [20]
  pest or weed control at 125 g/ha: 0%
[10]; [21]
  pest or weed control at 31 g/ha: 0%
[11]; [20]
  pest or weed control at 125 g/ha: 0%
[11]; [21]
  pest or weed control at 31 g/ha: 0%
[12]; [20]
  pest or weed control at 125 g/ha: 0%
[12]; [21]
  pest or weed control at 31 g/ha: 0%
Kochia (Kochia scoparia) [13]; [20]
  pest or weed control at 125 g/ha: 0%
Kochia (Kochia scoparia) [13]; [21]
  pest or weed control at 31 g/ha: 0%
[14]; [20]
  plant injury at 125 g/ha: 0%
[14]; [21]
  plant injury at 31 g/ha: 0%
[15]; [20]
  pest or weed control at 125 g/ha: 20%
[15]; [21]
  pest or weed control at 31 g/ha: 0%
[16]; 125 g ai/ha, visual rating about 10 d after treatment, read-out: Barnyardgrass plant response rating (0 to 100 scale, 0 no effect, 100 complete control)
  pest or weed control at 125 g/ha: 20%
[16]; 31 g ai/ha, 0 is no effect, 100 is complete control, read-out: Barnyardgrass plant response rating (0 to 100 scale)
  pest or weed control at 31 g/ha: 0%
[17]; [20]
  pest or weed control at 125 g/ha: 0%
[17]; [21]
  pest or weed control at 31 g/ha: 0%
[18]; [20]
  pest or weed control at 125 g/ha: 0%
[18]; [21]
  pest or weed control at 31 g/ha: 0%
Corn (Zea mays); [20]
  plant injury at 125 g/ha: 0%
Corn (Zea mays); [21]
  plant injury at 31 g/ha: 0%
